Reference: US7022480B1, “Exons of the hSKCa3/KCNN3 gene” (priority 2001, dated 2006)

Tests used:
[1] = system: SKCa and IKCa1 channel; details: reported in the literature; cited from earlier work
[2] = system: SKCa3-1a currents; assay: Co-expression with SKCa3-1a in mammalian cells, calcium-activated currents; type: cell-based; details: untagged or with a GFP tag
Description: When normally expressed in mammalian cells, native or green fluorescence protein (GFP) tagged SKCa3-1a produces robust apamin- and Leiurus toxin-sensitive calcium-activated currents (Shakkottai et al., J. Biol. Chem. 276 (46): 43145–43151, 2001.).

[3] = target: T1, SK2 channels in Jurkat T lymphocytes (Homo sapiens, UniProt Q9H2S1); assay: Whole-cell patch clamp of native SK2 current in Jurkat T lymphocytes; type: cell-based; details: transfected Jurkat T lymphocytes
T1 construct: endogenous in cells; host or cells: Jurkat T lymphocytes
Procedure: (§1) PC12 and Jurkat T cells were studied in the whole cell configuration of the patch clamp technique with a holding potential of −80 mV. SK and Kv current amplitude were determined in untransfected cells or in cells transfected with SKCa3-1b-GFP, SKCa3-1b-IRES-GFP, or control constructs (GFP vector alone, GFP-Kv1.7). […] Brightly GFP-positive cells were identified under a fluorescence microscope to allow the analysis of cells expressing high levels of the channel constructs for electrophysiological studies. Control constructs were expressed at equivalently high levels as assessed by the intensity of the GFP signal.
(§2) To activate SK channels, the pipette solution contained (in mM): 145 K^+ aspartate, 2 MgCl2, 10 HEPES, 10 K2EGTA, and 8.5 CaCl2 (1 μM free Ca^2+), pH 7.2, 290–310 mOsm. […] The amplitude of the KV current was measured as the maximum current at 30 mV in 160 Na^+ aspartate. […]
(§3) Human Jurkat T lymphocyte cell line was chosen for these experiments because they express SK2 channels and no other SK channels, along with voltage-gated Kv1.3 channels that could serve as an internal control (Fanger et al, J. Biol. Chem. 2001; 276: 12249–12256; Grissmer et al, J. Gen. Physiol. 1992; 99: 63–84; Desai et al, J. Biol. Chem. 2000; 275: 39954–39963.). Using the electrophysiological protocol described above for PC12 cells, SK2 and Kv1.3 currents in Jurkat cells were measured. […]

[4] = target: T2, Kv1.3 channels in Jurkat T lymphocytes (Homo sapiens, UniProt P22001); assay: Whole-cell patch clamp of Kv1.3 current in Jurkat T lymphocytes (internal control); type: cell-based; details: transfected Jurkat T lymphocytes
T2 construct: endogenous in cells; host or cells: Jurkat T lymphocytes
Procedure: as §1, §2, §3

[5] = system: GFP-SKCa1 currents; assay: Co-expression with GFP-SKCa1 in mammalian cells, calcium-activated currents; type: cell-based; details: expressed in mammalian cells
Description: GFP-SKCa1 produces robust calcium-activated currents when expressed in COS-7 cells (Shakkottai et al., J. Biol. Chem. 276 (46): 43145–43151, 2001.). When co-expressed with fluorescently labeled SKCa3-1b (Tomita et al, 2002 Mol. Psych. In press) or fluorescently labeled SKCa3-1c, dominant-negative suppression of SKCa3-1a is seen. Similarly, fluorescently labeled SKCa3-1b (Tomita et al, 2002 Mol. Psych. In press) and fluorescently labeled SKCa3-1c dominant-negatively suppress endogenous SKCa currents present in PC12 cells (Sun et al., J. Hum. Genet. 46, 463–470, 2001.).

Sequence of SKCa3-1a currents (Q9UGI6 81-731): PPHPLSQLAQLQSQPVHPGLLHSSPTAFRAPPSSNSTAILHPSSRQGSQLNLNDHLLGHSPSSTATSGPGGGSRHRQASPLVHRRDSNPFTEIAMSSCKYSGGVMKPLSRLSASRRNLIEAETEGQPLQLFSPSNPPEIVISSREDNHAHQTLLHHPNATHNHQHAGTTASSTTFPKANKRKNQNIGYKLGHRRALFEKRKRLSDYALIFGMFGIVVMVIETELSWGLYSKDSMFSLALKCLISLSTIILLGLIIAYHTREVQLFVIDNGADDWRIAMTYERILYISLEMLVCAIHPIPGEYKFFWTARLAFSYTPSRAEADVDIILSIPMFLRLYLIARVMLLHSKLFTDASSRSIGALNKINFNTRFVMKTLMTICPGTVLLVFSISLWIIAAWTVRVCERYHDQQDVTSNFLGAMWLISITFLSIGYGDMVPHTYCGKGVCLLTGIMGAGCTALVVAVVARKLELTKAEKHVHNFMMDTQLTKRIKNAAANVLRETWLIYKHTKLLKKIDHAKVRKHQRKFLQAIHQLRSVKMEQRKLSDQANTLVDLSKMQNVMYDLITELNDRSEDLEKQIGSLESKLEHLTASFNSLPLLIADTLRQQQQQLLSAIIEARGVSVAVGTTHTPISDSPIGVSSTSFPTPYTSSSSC
Sequence of GFP-SKCa1 currents (Q92952 2-543): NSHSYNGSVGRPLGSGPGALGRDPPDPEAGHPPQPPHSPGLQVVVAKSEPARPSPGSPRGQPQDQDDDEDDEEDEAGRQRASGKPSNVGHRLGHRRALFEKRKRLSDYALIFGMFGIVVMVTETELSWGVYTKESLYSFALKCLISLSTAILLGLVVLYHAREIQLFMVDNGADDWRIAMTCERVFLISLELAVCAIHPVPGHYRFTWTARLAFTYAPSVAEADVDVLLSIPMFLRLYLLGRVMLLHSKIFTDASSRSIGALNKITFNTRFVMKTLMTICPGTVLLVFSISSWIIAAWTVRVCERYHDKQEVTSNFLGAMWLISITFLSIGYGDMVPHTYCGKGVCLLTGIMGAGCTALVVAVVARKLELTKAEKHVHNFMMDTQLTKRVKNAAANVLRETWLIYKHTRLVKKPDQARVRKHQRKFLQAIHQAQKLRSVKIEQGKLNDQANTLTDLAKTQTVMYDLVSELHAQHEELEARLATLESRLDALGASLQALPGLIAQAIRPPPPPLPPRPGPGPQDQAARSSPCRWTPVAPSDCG
T2 sequence (P22001 whole entry): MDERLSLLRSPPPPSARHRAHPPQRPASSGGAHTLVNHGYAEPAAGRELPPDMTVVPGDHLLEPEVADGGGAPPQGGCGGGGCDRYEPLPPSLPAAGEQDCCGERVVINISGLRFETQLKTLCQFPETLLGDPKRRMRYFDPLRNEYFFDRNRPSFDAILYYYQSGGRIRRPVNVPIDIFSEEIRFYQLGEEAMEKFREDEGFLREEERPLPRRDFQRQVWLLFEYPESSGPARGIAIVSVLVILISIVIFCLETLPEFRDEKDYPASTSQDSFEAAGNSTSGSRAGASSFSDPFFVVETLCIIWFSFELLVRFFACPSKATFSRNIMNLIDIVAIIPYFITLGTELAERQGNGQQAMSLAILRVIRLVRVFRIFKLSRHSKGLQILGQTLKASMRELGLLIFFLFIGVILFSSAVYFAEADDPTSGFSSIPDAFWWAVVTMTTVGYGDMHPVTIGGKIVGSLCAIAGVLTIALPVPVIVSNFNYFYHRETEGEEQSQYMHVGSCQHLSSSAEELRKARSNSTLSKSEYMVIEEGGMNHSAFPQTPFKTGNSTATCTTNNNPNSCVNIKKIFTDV
T1 sequence (Q9H2S1 whole entry): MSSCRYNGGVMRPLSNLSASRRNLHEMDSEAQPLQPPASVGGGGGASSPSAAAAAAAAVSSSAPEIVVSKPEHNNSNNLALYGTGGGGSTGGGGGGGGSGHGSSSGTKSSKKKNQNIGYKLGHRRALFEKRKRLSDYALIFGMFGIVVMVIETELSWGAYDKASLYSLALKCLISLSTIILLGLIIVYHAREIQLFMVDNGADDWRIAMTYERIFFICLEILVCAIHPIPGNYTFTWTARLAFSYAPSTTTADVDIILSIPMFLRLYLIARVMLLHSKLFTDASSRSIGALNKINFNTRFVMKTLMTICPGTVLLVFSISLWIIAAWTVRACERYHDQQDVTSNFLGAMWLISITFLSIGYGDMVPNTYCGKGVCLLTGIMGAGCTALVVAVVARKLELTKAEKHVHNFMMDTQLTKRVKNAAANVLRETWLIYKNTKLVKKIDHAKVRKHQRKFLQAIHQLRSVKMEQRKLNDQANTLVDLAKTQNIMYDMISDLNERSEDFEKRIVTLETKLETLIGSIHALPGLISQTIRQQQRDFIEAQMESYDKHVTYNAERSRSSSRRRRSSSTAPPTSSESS

Compound	effect on SKCa and IKCa1 channel opening [1]	effect of co-expression on SKCa3-1a current [2]	effect of transfection on native SK2 current [3]	effect of transfection on control Kv1.3 current [4]	effect on GFP-SKCa1 currents [5]
CCn1c(=O)[nH]c2ccccc21 [1-ethyl-2-benzimidazolinone]	enhance SKCa and IKCa1 channel opening				
SKCa3-1b: isoform variant of the SK3 gene (SEQ ID NO: 2) using exon 1b, lacking N-terminus and S1 segment		selective dramatic inhibition	suppressed	unaffected	negative dominantly suppress
SKCa3-1c: isoform variant of the SK3 gene (SEQ ID NO: 4) using exon 1c, lacking N-terminus and S1 segment		comparable results			negative dominantly suppress
